Measurements from patent US8815935B2, “Inhibitors of protein prenyltransferases” (The Regents of the University of California, priority 2008, dated 2014).
Where two headings read alike, the source gives them in different places.

Assays:
Jurkat cells = experiment: Jurkat cell growth inhibition; assay type: cell-based, human
Protocol: In Table 4 in cell GI50 values for the growth inhibition of Jurkat cells are reported. The GI50 value is the concentration of a test compound needed to produce 50% growth inhibition in the cell type listed. In Table 4 the isolated yield of each synthetic step for the synthesis of corresponding compounds are also reported.
Panc-1 cells (Pancreatic cancer cell line) and Jurkat cells (T-cell leukemia) were treated with 12.5 μM of P5-H6 or 12.5 μM of mP5-H6a for 72 hours. The cell number was counted as described in Example 5.
(§1) Cell viability was determined by Cell Counting Kit-8 (CCK-8, Dojindo, Kumamoto, Japan) as described previously (31). Cell viability was calculated relative to the DMSO control. Cell cycle profile was analyzed by flow cytometry as described previously (32).

K562 cells = experiment: K562 cell growth inhibition; assay type: cell-based, human
Protocol: K562 cells are a cell line of human erythroleukemia cells. The K562 cells were treated with P3-E5, P5-H6 or GGTI-298 (a known GGTI compound illustrated in FIG. 27) for 72 hours and then cell number was counted using cell counting kit-8 (Dojindo, Gaithersburg, Md.). Cell viability relative to the DMSO control and the known GGTI compound is plotted in FIG. 23.
as §1

GGTase-I = biological target: T1, GGTase-I (Rattus norvegicus, UniProt P53610+Q04631); experiment: In vitro GGTase-I enzyme assay (IC50, kinetics); assay type: biochemical
T1 construct: purchased JENA BIOSCIENCE
Protocol: The GGTase-I assay was carried out using RhoA as a substrate protein, GGTase-I (JENA Bioscience) and [3H]geranylgeranyl pyrophosphate. Incubation was for 30 min at 37° C. GGTase-II (or RabGGTase) assay was carried out using YPTI as a substrate protein, GGTase-II (Calbiochem, San Diego, Calif.) plus REP1 (Calbiochem) and [3H]geranylgeranyl pyrophosphate. Incubation was for 30 min at 37° C. FIGS. 20D-20F show the three dimensional structure of GGTase I (D), FTsse (E) and GGTase II (F) which can be obtained from X-ray diffraction studies of protein crystals.
GGTase-I and FTase activities were determined by following the incorporation of radiolabeled isoprenoid [^3H]-geranylgeranyl or [^3H]-farnesyl into substrate proteins. FTase or GGTase-I (50 nM) were used to initiate reactions containing 0.4 μM of [^3H]-FPP or 0.5 μM of [^3H]-GGPP and 2 μM of MBP-tagged substrates (K-Ras4B for FTase; RhoA for GGTase-I) in 20 μl of buffer {50 mM Tris-HCl (pH 7.5), 10 mM MgCl2, […] and 5 mM DTT}. Inhibitors were added at the indicated concentrations. The final DMSO concentration was 2.5% for all samples.
Reactions were carried out for 10 min at 30° C. The reaction mixture was spotted onto a filter paper, treated with 10% trichloroacetic acid (TCA) followed by ethanol and acetone washing. The filter was counted using a scintillation counter. Kinetic assays in which the GGPP concentration was varied employed fixed concentrations of GGTase-I and RhoA, and reactions were carried out for 5 min. Similarly, fixed concentrations of GGTase-I and GGPP were used when the amount of RhoA was varied.

MCF7 = MCF7 cell growth inhibition; assay type: cell-based, human; settings: Homo sapiens, MCF7, Tables 8-15; no unit printed there
Protocol: (§2) In FIG. 9-24 in vitro IC50 values for the GGTase I activity are reported. In Tables 7-15 in cell GI50 values for the growth inhibition of a variety of cancer cell lines (e.g., Jurkat, K562, MDA-MB-231, BT474, MCF7, MiaPaCa2, Aspc-1, Panc-1, Capan-2, CFpac-1, and MCF10a) are reported.
as §1

MCF10a = MCF10a cell growth inhibition; assay type: cell-based; settings: Tables 8-15, no unit printed there
Description: as §2

[1] = Homo sapiens, Jurkat, Tables 4, 6, 7, read-out: Jurkat cell GI50
[2] = Tables 3, 5, 7, read-out: In vitro (enzyme assay) IC50, GGTase I
[3] = Homo sapiens, Jurkat, Tables 8-15, no unit printed there, read-out: Jurkat GI50
[4] = Homo sapiens, K562, Tables 8-15, no unit printed there
[5] = Tables 8-15, no unit printed there (Table 7 head: μM unless otherwise specified), read-out: In vitro (GGTase I IC50)
[6] = Tables 4, 6, 7, read-out: Jurkat cell GI50
[7] = Tables 8-15, no unit printed there, read-out: Jurkat GI50
[8] = Tables 8-15, no unit printed there

Row | Structure (SMILES) | GI50 (Jurkat cells; [1]) | IC50 (GGTase-I; [2]) | GI50 (Jurkat cells; [3]) | GI50 (K562 cells; [4]) | IC50 (GGTase-I; [5]) | further results
1 | Cc1ccccc1S(=O)(=O)N1[C@@H](c2ccc(Cl)cc2)C(C(N)=O)=C[C@H]1C(C)(C)C | 11 µM | 1.6 µM | – | – | – | GI50 (K562 cells; Homo sapiens, K562, Table 7): 4.8 µM
2 | Cc1ccccc1S(=O)(=O)N1[C@@H](c2ccc(Cl)cc2)C(CO)=C[C@H]1C(C)(C)C | 5.8 µM | 2.2 µM | – | – | – | GI50 (K562 cells; Homo sapiens, K562, Table 7): 6 µM
3 | CC(C)(C)[C@@H]1C=C(C(=O)O)[C@H](c2ccc(Cl)cc2)N1S(=O)(=O)c1c(Cl)cccc1Cl | – | – | 2.76 µM | 8.26 µM | 4.4 µM | –
4 | CC(C)(C)[C@@H]1C=C(C(=O)O)[C@H](c2ccc(Cl)cc2)N1S(=O)(=O)C(C)(C)C | – | – | 5.36 µM | > 20 µM | 28.9 µM | –
5 | Cc1ccccc1S(=O)(=O)N1[C@@H](c2ccc(Cl)cc2)C(COCC(=O)N[C@@H](Cc2ccccc2)C(=O)O)=C[C@H]1C(C)(C)C | – | – | 12 µM | 17 µM | 0.1 µM | –
6 | Cc1ccccc1S(=O)(=O)N1[C@@H](c2ccc(Cl)cc2)C(COCC(=O)N[C@@H](Cc2ccccc2)C(N)=O)=C[C@H]1C(C)(C)C | – | – | 1.3 µM | 5 µM | 0.7 µM | –
7 | Cc1ccccc1S(=O)(=O)N1C(c2cccc(Cl)c2)C(CO)=CC[C@H]1c1ccc(Cl)cc1 (stereo partly shown) | – | – | 7.5 µM | 5.8 µM | > 100 µM | –
8 | Cc1ccccc1S(=O)(=O)N1C(c2cccc(Cl)c2)C(C(=O)N[C@@H](CC(C)C)C(N)=O)=CC[C@H]1c1ccc(Cl)cc1 (stereo partly shown) | – | – | 6.1 µM | 6.15 µM | – | GI50 (MCF7): 10.9 µM; GI50 (MCF10a; Homo sapiens, MCF-10A): > 20 µM
9 | CC(C)C[C@H](NC(=O)C1=CC[C@@H](c2cccc(Br)c2)N(S(=O)(=O)c2ccc(Cl)cc2)C1c1cccc(Cl)c1)C(N)=O (stereo partly shown) | – | – | 3.15 µM | 7.06 µM | – | GI50 (MCF7): 3.43 µM; GI50 (MCF10a; Homo sapiens, MCF-10A): 14.2 µM
10 | COC(=O)[C@H](Cc1ccccc1)NC(=O)C1=C[C@@H](C(C)(C)C)N(S(=O)(=O)c2ccccc2C)[C@H]1c1ccc(Cl)cc1 [P61-A04] | 19 µM | > 50 µM | 19 µM | 14 µM | > 50 µM | –
11 | CC(C)C[C@H](NC(=O)C1=CC[C@@H](c2cccc(Cl)c2)N(S(=O)(=O)c2ccc(Br)cc2)C1c1cccc(Br)c1)C(N)=O (stereo partly shown) [P61-C09] | – | > 50 µM | – | – | > 50 µM | GI50 (Jurkat cells; [6]): 6.38 µM; GI50 (Jurkat cells; Tables 8-15, no unit printed there, listed as P61C9, read-out: Jurkat GI50): 6.38 µM; GI50 (K562 cells; Tables 8-15, no unit printed there, listed as P61C9): 12.9 µM
12 | CC(C)C[C@H](NC(=O)C1=CC[C@@H](c2cccc(Cl)c2)N(S(=O)(=O)c2ccc(Br)cc2)C1c1cccc(Br)c1)C(N)=O (stereo partly shown) [P61-C10] | – | – | – | – | – | GI50 (Jurkat cells; [6]): 2.22 µM; GI50 (Jurkat cells; [7]): 2.22 µM; GI50 (K562 cells; [8]): 4.37 µM
13 | CC(C)C[C@H](NC(=O)C1=CC[C@@H](c2cccc(Br)c2)N(S(=O)(=O)c2ccc(F)cc2)C1c1cccc(Cl)c1)C(N)=O (stereo partly shown) [P61-C11] | 1.76 µM | 32.9 µM | 1.76 µM | 10.2 µM | 32.9 µM | –
14 | NC(=O)[C@H](Cc1ccccc1)NC(=O)C1=CC[C@@H](c2cccc(Cl)c2)N(S(=O)(=O)c2ccc(Cl)cc2)C1c1cccc(Cl)c1 (stereo partly shown) [P61-D02] | 1.96 µM | – | 1.96 µM | 4.33 µM | – | IC50 (GGTase-I; Tables 5, 14, read-out: In vitro (enzyme assay) IC50, GGTase I): 0.6 µM
15 | CC(C)C[C@H](NC(=O)C1=CC[C@@H](c2cccc(Br)c2)N(S(=O)(=O)c2ccc(F)cc2)[C@H]1c1cccc(Cl)c1)C(N)=O [P61-D03] | 0.32 µM | 6.9 µM | 0.32 µM | 1.7 µM | 6.9 µM | –
16 | NC(=O)[C@H](Cc1ccccc1)NC(=O)C1=CC[C@@H](c2cccc(Br)c2)N(S(=O)(=O)c2ccc(Cl)cc2)C1c1cccc(Cl)c1 (stereo partly shown) [P61-D04] | 4.86 µM | 1.3 µM | 4.86 µM | 7.69 µM | 1.3 µM | –
17 | NC(=O)[C@H](Cc1ccccc1)NC(=O)C1=CC[C@@H](c2cccc(Br)c2)N(S(=O)(=O)c2ccc(Cl)cc2)C1c1cccc(Cl)c1 (stereo partly shown) [P61-D05] | – | > 20 µM | – | – | > 20 µM | GI50 (Jurkat cells; [6]): 3.57 µM; GI50 (Jurkat cells; Tables 8-15, no unit printed there, listed as P61D5, read-out: Jurkat GI50): 3.57 µM; GI50 (K562 cells; Tables 8-15, no unit printed there, listed as P61D5): 10.3 µM
18 | CC(C)(C)[C@@H]1C=C(C(=O)N[C@@H](Cc2ccccc2)C(N)=O)[C@H](c2ccc(Cl)c(Cl)c2)N1S(=O)(=O)c1c(Cl)cccc1Cl [P61-D09] | 4.91 µM | > 50 µM | 4.91 µM | 3.63 µM | > 50 µM | –
19 | CC(C)(C)[C@@H]1C=C(C(=O)N[C@@H](Cc2ccccc2)C(N)=O)[C@H](c2ccc(Cl)c(Cl)c2)N1S(=O)(=O)c1c(Cl)cccc1Cl [P61-D10] | – | – | – | – | – | GI50 (Jurkat cells; [6]): 5.28 µM; GI50 (Jurkat cells; [7]): 5.28 µM; GI50 (K562 cells; [8]): 3.67 µM
20 | CC(C)(C)[C@@H]1C=C(C(=O)N[C@@H](Cc2ccccc2)C(N)=O)[C@H](c2ccc(Cl)c(Cl)c2)N1S(=O)(=O)C(C)(C)C [P61-D11] | 5.91 µM | > 50 µM | 5.91 µM | 5.9 µM | > 50 µM | –
21 | CC(C)(C)[C@@H]1C=C(C(=O)N[C@@H](Cc2ccccc2)C(N)=O)[C@H](c2ccc(Cl)c(Cl)c2)N1S(=O)(=O)C(C)(C)C [P61-E02] | – | 2.7 µM | – | – | 2.7 µM | GI50 (Jurkat cells; [6]): 4.57 µM; GI50 (Jurkat cells; Tables 8-15, no unit printed there, listed as P61E2, read-out: Jurkat GI50): 4.57 µM; GI50 (K562 cells; Tables 8-15, no unit printed there, listed as P61E2): 4.22 µM
22 | COC(=O)[C@H](Cc1ccccc1)NC(=O)C1=C[C@@H](C(C)(C)C)N(S(=O)(=O)c2ccccc2C)[C@H]1c1ccc(Cl)cc1 [P61A5] | – | – | – | – | – | GI50 (Jurkat cells; [7]): 10.5 µM; GI50 (K562 cells; [8]): 17 µM
23 | Cc1ccccc1S(=O)(=O)N1[C@@H](c2ccc(Cl)cc2)C(C(=O)N[C@@H](Cc2ccccc2)C(=O)O)=C[C@H]1C(C)(C)C [drawing 152] | – | – | 13 µM | 20 µM | 1.4 µM | –
24 | Cc1ccccc1S(=O)(=O)N1C(c2cccc(Cl)c2)C(C(=O)N[C@@H](CC(C)C)C(N)=O)=CC[C@H]1c1ccc(Cl)cc1 (stereo partly shown) [drawing 214] | – | – | – | – | – | GI50 (Jurkat cells; [7]): 6.1 µM; GI50 (MCF10a): > 20 µM
